Reference: ChEMBL document CHEMBL2073912, “Biochemical basis of polyvalency as a strategy for enhancing the efficacy of P-glycoprotein (ABCB1) modulators: stipiamide homodimers separated with defined-length spacers reverse drug efflux with greater efficacy” (Biochemistry, 2004)

target: ATP-dependent translocase ABCB1 (Homo sapiens, UniProt P08183); test: TP_TRANSPORTER: increase in bodipy-FL-prazosin intracellular accumulation in MDR1-expressing NIH-3T3 cells; type: functional, cell-based; settings: mouse, nih3t3
Sequence (P08183 whole entry): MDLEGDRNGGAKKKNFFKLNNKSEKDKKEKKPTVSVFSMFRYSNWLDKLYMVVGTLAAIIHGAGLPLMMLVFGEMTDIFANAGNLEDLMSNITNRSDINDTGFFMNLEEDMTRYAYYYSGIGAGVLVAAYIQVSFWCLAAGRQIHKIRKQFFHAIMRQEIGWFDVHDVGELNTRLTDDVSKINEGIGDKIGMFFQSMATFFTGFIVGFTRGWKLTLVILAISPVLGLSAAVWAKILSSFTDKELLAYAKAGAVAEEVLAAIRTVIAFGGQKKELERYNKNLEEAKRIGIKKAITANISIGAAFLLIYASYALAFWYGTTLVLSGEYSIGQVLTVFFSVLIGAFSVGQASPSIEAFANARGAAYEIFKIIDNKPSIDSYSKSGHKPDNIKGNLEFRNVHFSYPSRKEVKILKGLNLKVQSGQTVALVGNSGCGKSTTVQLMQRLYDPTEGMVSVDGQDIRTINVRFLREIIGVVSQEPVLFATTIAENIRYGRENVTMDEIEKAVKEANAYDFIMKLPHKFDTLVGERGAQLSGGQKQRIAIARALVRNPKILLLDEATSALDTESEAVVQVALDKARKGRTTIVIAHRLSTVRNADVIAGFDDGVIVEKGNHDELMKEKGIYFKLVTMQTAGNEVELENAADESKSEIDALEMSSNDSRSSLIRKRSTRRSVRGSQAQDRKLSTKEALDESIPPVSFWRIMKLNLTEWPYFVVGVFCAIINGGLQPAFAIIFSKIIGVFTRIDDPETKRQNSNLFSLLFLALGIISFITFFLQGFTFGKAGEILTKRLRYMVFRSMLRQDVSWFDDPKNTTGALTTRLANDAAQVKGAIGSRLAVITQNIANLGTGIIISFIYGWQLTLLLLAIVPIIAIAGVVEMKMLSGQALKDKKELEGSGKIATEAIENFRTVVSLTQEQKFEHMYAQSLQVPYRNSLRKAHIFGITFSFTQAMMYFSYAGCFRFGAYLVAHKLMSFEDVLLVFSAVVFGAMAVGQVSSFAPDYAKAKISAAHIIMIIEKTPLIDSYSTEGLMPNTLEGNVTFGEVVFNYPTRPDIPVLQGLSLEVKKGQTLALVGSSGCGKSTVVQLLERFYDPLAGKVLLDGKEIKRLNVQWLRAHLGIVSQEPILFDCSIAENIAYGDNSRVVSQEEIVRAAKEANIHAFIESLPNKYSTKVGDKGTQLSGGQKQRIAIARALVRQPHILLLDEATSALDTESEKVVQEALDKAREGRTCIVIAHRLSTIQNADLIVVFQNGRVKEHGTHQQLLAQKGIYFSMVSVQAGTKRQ

| Activity | Structure (SMILES) |
| --- | --- |
| inhibitor [+] | C/C(=C\CCC#C/C=C/C(C)C(O)/C(C)=C/CCc1cccc2ccccc12)C(=O)NCCOCCOCCOCCOCCOCCOCCOCCOCNC(=O)/C(C)=C/CCC#C/C=C/C(C)C(O)/C(C)=C/CCc1ccc2ccccc2c1 (stereo unspecified) |
| inhibitor [+] | C/C(=C\CCC#C/C=C/C(C)C(O)/C(C)=C/CCc1ccc2ccccc2c1)C(=O)NCCOCCOCCOCCOCCOCCNC(=O)/C(C)=C/CCC#C/C=C/C(C)C(O)/C(C)=C/CCc1cccc2ccccc12 (stereo unspecified) |
| is not an inhibitor [-] | C/C(=C\CCC#C/C=C/C(C)C(O)/C(C)=C/CCc1cccc2ccccc12)C(=O)NCCOCCOCCOCCOCCOCCO (stereo unspecified) [STIPIAMIDE MONOMER] |

The remaining lines, values behind:

| Structure (SMILES) | Activity |
| --- | --- |
| C/C(=C\CCC#C/C=C/C(C)C(O)/C(C)=C/CCc1cccc2ccccc12)C(=O)NCCOCCOCCOCCOCCOCCOCCOCCOCCOCCOCCOCCOCNC(=O)/C(C)=C/CCC#C/C=C/C(C)C(O)/C(C)=C/CCc1ccc2ccccc2c1 (stereo unspecified) | inhibitor [+] |
| C/C(=C\CCC#C/C=C/C(C)C(O)/C(C)=C/CCc1cccc2ccccc12)C(=O)NCCOCCOCNC(=O)/C(C)=C/CCC#C/C=C/C(C)C(O)/C(C)=C/CCc1ccc2ccccc2c1 (stereo unspecified) | is not an inhibitor [-] |
| C/C(=C\CCC#C/C=C/C(C)C(O)/C(C)=C/CCc1ccc2ccccc2c1)C(=O)NCNC(=O)/C(C)=C/CCC#C/C=C/C(C)C(O)/C(C)=C/CCc1cccc2ccccc12 (stereo unspecified) | is not an inhibitor [-] |
